Measurements published in the OligoGym collection.
Oligonucleotides are given in HELM: sugar(base)linkage, 5' to 3'; d 2'-deoxyribose, r ribose, m 2'-O-methylribose, p phosphate. ss, as = sense and antisense strand

Target: TMEM63B
Assay: reporter assay of Huesken 2005
Settings: siRNA
Further: test concentration or dose not given here.

With “RNA1{r(U)p.r(G)p.r(A)p.r(A)p.r(U)p.r(G)p.r(A)p.r(G)p.r(A)p.r(A)p.r(G)p.r(C)p.r(C)p.r(U)p.r(C)p.r(U)p.r(U)p.r(G)p.r(G)p.d(T)p.d(T)}|RNA2{r(C)p.r(C)p.r(A)p.r(A)p.r(G)p.r(A)p.r(G)p.r(G)p.r(C)p.r(U)p.r(U)p.r(C)p.r(U)p.r(C)p.r(A)p.r(U)p.r(U)p.r(C)p.r(A)p.d(C)p.d(C)}$$$RNA1{StrandType:ss}|RNA2{StrandType:as}$” as the substance, how does the normalised inhibition (eCFP-eYFP dual reporter) read?
Its normalised inhibition (eCFP-eYFP dual reporter) is 39.5%.

With “RNA1{r(G)p.r(C)p.r(C)p.r(U)p.r(U)p.r(U)p.r(G)p.r(U)p.r(C)p.r(A)p.r(C)p.r(C)p.r(U)p.r(U)p.r(C)p.r(C)p.r(A)p.r(C)p.r(A)p.d(T)p.d(T)}|RNA2{r(U)p.r(G)p.r(U)p.r(G)p.r(G)p.r(A)p.r(A)p.r(G)p.r(G)p.r(U)p.r(G)p.r(A)p.r(C)p.r(A)p.r(A)p.r(A)p.r(G)p.r(G)p.r(C)p.d(C)p.d(A)}$$$RNA1{StrandType:ss}|RNA2{StrandType:as}$” as the substance, how does the normalised inhibition (eCFP-eYFP dual reporter) read?
Its normalised inhibition (eCFP-eYFP dual reporter) is 72.5%.

Which normalised inhibition (eCFP-eYFP dual reporter) does the source give for “RNA1{r(G)p.r(C)p.r(C)p.r(U)p.r(A)p.r(C)p.r(C)p.r(A)p.r(U)p.r(G)p.r(A)p.r(U)p.r(C)p.r(A)p.r(A)p.r(C)p.r(C)p.r(C)p.r(C)p.d(T)p.d(T)}|RNA2{r(G)p.r(G)p.r(G)p.r(G)p.r(U)p.r(U)p.r(G)p.r(A)p.r(U)p.r(C)p.r(A)p.r(U)p.r(G)p.r(G)p.r(U)p.r(A)p.r(G)p.r(G)p.r(C)p.d(A)p.d(C)}$$$RNA1{StrandType:ss}|RNA2{StrandType:as}$” here?
Its normalised inhibition (eCFP-eYFP dual reporter) is 39.6%.

Which normalised inhibition (eCFP-eYFP dual reporter) does the source give for “RNA1{r(C)p.r(C)p.r(A)p.r(C)p.r(U)p.r(C)p.r(C)p.r(A)p.r(G)p.r(C)p.r(C)p.r(A)p.r(U)p.r(C)p.r(A)p.r(U)p.r(C)p.r(A)p.r(U)p.d(T)p.d(T)}|RNA2{r(A)p.r(U)p.r(G)p.r(A)p.r(U)p.r(G)p.r(A)p.r(U)p.r(G)p.r(G)p.r(C)p.r(U)p.r(G)p.r(G)p.r(A)p.r(G)p.r(U)p.r(G)p.r(G)p.d(T)p.d(G)}$$$RNA1{StrandType:ss}|RNA2{StrandType:as}$” here?
Its normalised inhibition (eCFP-eYFP dual reporter) is 77.4%.

Which normalised inhibition (eCFP-eYFP dual reporter) does the source give for “RNA1{r(G)p.r(U)p.r(G)p.r(A)p.r(A)p.r(U)p.r(G)p.r(A)p.r(G)p.r(A)p.r(A)p.r(G)p.r(C)p.r(C)p.r(U)p.r(C)p.r(U)p.r(U)p.r(G)p.d(T)p.d(T)}|RNA2{r(C)p.r(A)p.r(A)p.r(G)p.r(A)p.r(G)p.r(G)p.r(C)p.r(U)p.r(U)p.r(C)p.r(U)p.r(C)p.r(A)p.r(U)p.r(U)p.r(C)p.r(A)p.r(C)p.d(C)p.d(T)}$$$RNA1{StrandType:ss}|RNA2{StrandType:as}$” here?
Its normalised inhibition (eCFP-eYFP dual reporter) is 69.3%.

For “RNA1{r(G)p.r(C)p.r(A)p.r(C)p.r(A)p.r(U)p.r(C)p.r(A)p.r(U)p.r(C)p.r(G)p.r(G)p.r(G)p.r(C)p.r(U)p.r(G)p.r(C)p.r(U)p.r(G)p.d(T)p.d(T)}|RNA2{r(C)p.r(A)p.r(G)p.r(C)p.r(A)p.r(G)p.r(C)p.r(C)p.r(C)p.r(G)p.r(A)p.r(U)p.r(G)p.r(A)p.r(U)p.r(G)p.r(U)p.r(G)p.r(C)p.d(C)p.d(G)}$$$RNA1{StrandType:ss}|RNA2{StrandType:as}$”, which normalised inhibition (eCFP-eYFP dual reporter) is on record?
The normalised inhibition (eCFP-eYFP dual reporter) was 69.9%.

For “RNA1{r(A)p.r(A)p.r(G)p.r(A)p.r(U)p.r(C)p.r(A)p.r(A)p.r(G)p.r(A)p.r(A)p.r(G)p.r(C)p.r(A)p.r(U)p.r(U)p.r(U)p.r(U)p.r(G)p.d(T)p.d(T)}|RNA2{r(C)p.r(A)p.r(A)p.r(A)p.r(A)p.r(U)p.r(G)p.r(C)p.r(U)p.r(U)p.r(C)p.r(U)p.r(U)p.r(G)p.r(A)p.r(U)p.r(C)p.r(U)p.r(U)p.d(T)p.d(T)}$$$RNA1{StrandType:ss}|RNA2{StrandType:as}$”, which normalised inhibition (eCFP-eYFP dual reporter) is on record?
The normalised inhibition (eCFP-eYFP dual reporter) was 61.7%.

Which normalised inhibition (eCFP-eYFP dual reporter) does the source give for “RNA1{r(A)p.r(C)p.r(G)p.r(C)p.r(U)p.r(C)p.r(U)p.r(G)p.r(G)p.r(G)p.r(G)p.r(A)p.r(G)p.r(A)p.r(A)p.r(C)p.r(A)p.r(G)p.r(G)p.d(T)p.d(T)}|RNA2{r(C)p.r(C)p.r(U)p.r(G)p.r(U)p.r(U)p.r(C)p.r(U)p.r(C)p.r(C)p.r(C)p.r(C)p.r(A)p.r(G)p.r(A)p.r(G)p.r(C)p.r(G)p.r(U)p.d(G)p.d(T)}$$$RNA1{StrandType:ss}|RNA2{StrandType:as}$” here?
Its normalised inhibition (eCFP-eYFP dual reporter) is 48.3%.

Which normalised inhibition (eCFP-eYFP dual reporter) does the source give for “RNA1{r(G)p.r(G)p.r(G)p.r(U)p.r(U)p.r(C)p.r(C)p.r(U)p.r(A)p.r(G)p.r(C)p.r(U)p.r(C)p.r(C)p.r(C)p.r(A)p.r(C)p.r(G)p.r(U)p.d(T)p.d(T)}|RNA2{r(A)p.r(C)p.r(G)p.r(U)p.r(G)p.r(G)p.r(G)p.r(A)p.r(G)p.r(C)p.r(U)p.r(A)p.r(G)p.r(G)p.r(A)p.r(A)p.r(C)p.r(C)p.r(C)p.d(C)p.d(G)}$$$RNA1{StrandType:ss}|RNA2{StrandType:as}$” here?
The normalised inhibition (eCFP-eYFP dual reporter) was 57.9%.

Which normalised inhibition (eCFP-eYFP dual reporter) does the source give for “RNA1{r(U)p.r(C)p.r(G)p.r(U)p.r(C)p.r(C)p.r(U)p.r(C)p.r(U)p.r(U)p.r(C)p.r(A)p.r(U)p.r(C)p.r(C)p.r(U)p.r(C)p.r(C)p.r(U)p.d(T)p.d(T)}|RNA2{r(A)p.r(G)p.r(G)p.r(A)p.r(G)p.r(G)p.r(A)p.r(U)p.r(G)p.r(A)p.r(A)p.r(G)p.r(A)p.r(G)p.r(G)p.r(A)p.r(C)p.r(G)p.r(A)p.d(C)p.d(A)}$$$RNA1{StrandType:ss}|RNA2{StrandType:as}$” here?
The normalised inhibition (eCFP-eYFP dual reporter) was 55.8%.

“RNA1{r(C)p.r(C)p.r(G)p.r(U)p.r(G)p.r(C)p.r(A)p.r(C)p.r(U)p.r(A)p.r(C)p.r(C)p.r(U)p.r(G)p.r(U)p.r(C)p.r(C)p.r(U)p.r(U)p.d(T)p.d(T)}|RNA2{r(A)p.r(A)p.r(G)p.r(G)p.r(A)p.r(C)p.r(A)p.r(G)p.r(G)p.r(U)p.r(A)p.r(G)p.r(U)p.r(G)p.r(C)p.r(A)p.r(C)p.r(G)p.r(G)p.d(C)p.d(A)}$$$RNA1{StrandType:ss}|RNA2{StrandType:as}$” was tested. Which normalised inhibition (eCFP-eYFP dual reporter) did it give?
Its normalised inhibition (eCFP-eYFP dual reporter) is 86.8%.

“RNA1{r(U)p.r(C)p.r(A)p.r(U)p.r(G)p.r(A)p.r(C)p.r(C)p.r(U)p.r(A)p.r(C)p.r(A)p.r(G)p.r(U)p.r(A)p.r(U)p.r(C)p.r(A)p.r(C)p.d(T)p.d(T)}|RNA2{r(G)p.r(U)p.r(G)p.r(A)p.r(U)p.r(A)p.r(C)p.r(U)p.r(G)p.r(U)p.r(A)p.r(G)p.r(G)p.r(U)p.r(C)p.r(A)p.r(U)p.r(G)p.r(A)p.d(C)p.d(C)}$$$RNA1{StrandType:ss}|RNA2{StrandType:as}$” was tested. Which normalised inhibition (eCFP-eYFP dual reporter) did it give?
Its normalised inhibition (eCFP-eYFP dual reporter) is 60.2%.

For “RNA1{r(G)p.r(U)p.r(C)p.r(U)p.r(C)p.r(C)p.r(A)p.r(G)p.r(C)p.r(U)p.r(C)p.r(C)p.r(G)p.r(U)p.r(U)p.r(G)p.r(A)p.r(C)p.r(U)p.d(T)p.d(T)}|RNA2{r(A)p.r(G)p.r(U)p.r(C)p.r(A)p.r(A)p.r(C)p.r(G)p.r(G)p.r(A)p.r(G)p.r(C)p.r(U)p.r(G)p.r(G)p.r(A)p.r(G)p.r(A)p.r(C)p.d(A)p.d(G)}$$$RNA1{StrandType:ss}|RNA2{StrandType:as}$”, which normalised inhibition (eCFP-eYFP dual reporter) is on record?
Its normalised inhibition (eCFP-eYFP dual reporter) is 69.5%.

With “RNA1{r(G)p.r(G)p.r(A)p.r(U)p.r(G)p.r(A)p.r(U)p.r(G)p.r(A)p.r(G)p.r(A)p.r(U)p.r(C)p.r(C)p.r(G)p.r(G)p.r(G)p.r(A)p.r(C)p.d(T)p.d(T)}|RNA2{r(G)p.r(U)p.r(C)p.r(C)p.r(C)p.r(G)p.r(G)p.r(A)p.r(U)p.r(C)p.r(U)p.r(C)p.r(A)p.r(U)p.r(C)p.r(A)p.r(U)p.r(C)p.r(C)p.d(T)p.d(T)}$$$RNA1{StrandType:ss}|RNA2{StrandType:as}$” as the substance, how does the normalised inhibition (eCFP-eYFP dual reporter) read?
Its normalised inhibition (eCFP-eYFP dual reporter) is 89.3%.

Which normalised inhibition (eCFP-eYFP dual reporter) does the source give for “RNA1{r(C)p.r(A)p.r(G)p.r(C)p.r(C)p.r(A)p.r(U)p.r(C)p.r(A)p.r(U)p.r(C)p.r(A)p.r(U)p.r(C)p.r(A)p.r(C)p.r(C)p.r(A)p.r(C)p.d(T)p.d(T)}|RNA2{r(G)p.r(U)p.r(G)p.r(G)p.r(U)p.r(G)p.r(A)p.r(U)p.r(G)p.r(A)p.r(U)p.r(G)p.r(A)p.r(U)p.r(G)p.r(G)p.r(C)p.r(U)p.r(G)p.d(G)p.d(A)}$$$RNA1{StrandType:ss}|RNA2{StrandType:as}$” here?
The normalised inhibition (eCFP-eYFP dual reporter) was 74.3%.

“RNA1{r(A)p.r(C)p.r(U)p.r(U)p.r(G)p.r(A)p.r(A)p.r(A)p.r(U)p.r(C)p.r(A)p.r(G)p.r(G)p.r(G)p.r(A)p.r(A)p.r(C)p.r(A)p.r(A)p.d(T)p.d(T)}|RNA2{r(U)p.r(U)p.r(G)p.r(U)p.r(U)p.r(C)p.r(C)p.r(C)p.r(U)p.r(G)p.r(A)p.r(U)p.r(U)p.r(U)p.r(C)p.r(A)p.r(A)p.r(G)p.r(U)p.d(T)p.d(G)}$$$RNA1{StrandType:ss}|RNA2{StrandType:as}$” was tested. Which normalised inhibition (eCFP-eYFP dual reporter) did it give?
The normalised inhibition (eCFP-eYFP dual reporter) was 34.4%.

“RNA1{r(G)p.r(U)p.r(A)p.r(C)p.r(A)p.r(U)p.r(G)p.r(A)p.r(U)p.r(C)p.r(C)p.r(G)p.r(G)p.r(C)p.r(U)p.r(C)p.r(U)p.r(G)p.r(C)p.d(T)p.d(T)}|RNA2{r(G)p.r(C)p.r(A)p.r(G)p.r(A)p.r(G)p.r(C)p.r(C)p.r(G)p.r(G)p.r(A)p.r(U)p.r(C)p.r(A)p.r(U)p.r(G)p.r(U)p.r(A)p.r(C)p.d(A)p.d(T)}$$$RNA1{StrandType:ss}|RNA2{StrandType:as}$” was tested. Which normalised inhibition (eCFP-eYFP dual reporter) did it give?
The normalised inhibition (eCFP-eYFP dual reporter) was 46.8%.

“RNA1{r(U)p.r(U)p.r(G)p.r(C)p.r(U)p.r(G)p.r(A)p.r(U)p.r(G)p.r(C)p.r(C)p.r(A)p.r(C)p.r(C)p.r(C)p.r(G)p.r(A)p.r(C)p.r(G)p.d(T)p.d(T)}|RNA2{r(C)p.r(G)p.r(U)p.r(C)p.r(G)p.r(G)p.r(G)p.r(U)p.r(G)p.r(G)p.r(C)p.r(A)p.r(U)p.r(C)p.r(A)p.r(G)p.r(C)p.r(A)p.r(A)p.d(C)p.d(T)}$$$RNA1{StrandType:ss}|RNA2{StrandType:as}$” was tested. Which normalised inhibition (eCFP-eYFP dual reporter) did it give?
Its normalised inhibition (eCFP-eYFP dual reporter) is 39.7%.

“RNA1{r(A)p.r(U)p.r(C)p.r(C)p.r(U)p.r(C)p.r(A)p.r(U)p.r(C)p.r(C)p.r(C)p.r(A)p.r(A)p.r(G)p.r(A)p.r(U)p.r(G)p.r(A)p.r(G)p.d(T)p.d(T)}|RNA2{r(C)p.r(U)p.r(C)p.r(A)p.r(U)p.r(C)p.r(U)p.r(U)p.r(G)p.r(G)p.r(G)p.r(A)p.r(U)p.r(G)p.r(A)p.r(G)p.r(G)p.r(A)p.r(U)p.d(G)p.d(A)}$$$RNA1{StrandType:ss}|RNA2{StrandType:as}$” was tested. Which normalised inhibition (eCFP-eYFP dual reporter) did it give?
Its normalised inhibition (eCFP-eYFP dual reporter) is 53.8%.

With “RNA1{r(C)p.r(C)p.r(U)p.r(G)p.r(G)p.r(U)p.r(C)p.r(A)p.r(U)p.r(C)p.r(A)p.r(A)p.r(U)p.r(G)p.r(U)p.r(C)p.r(G)p.r(U)p.r(C)p.d(T)p.d(T)}|RNA2{r(G)p.r(A)p.r(C)p.r(G)p.r(A)p.r(C)p.r(A)p.r(U)p.r(U)p.r(G)p.r(A)p.r(U)p.r(G)p.r(A)p.r(C)p.r(C)p.r(A)p.r(G)p.r(G)p.d(C)p.d(A)}$$$RNA1{StrandType:ss}|RNA2{StrandType:as}$” as the substance, how does the normalised inhibition (eCFP-eYFP dual reporter) read?
Its normalised inhibition (eCFP-eYFP dual reporter) is 60.4%.
